Broadly, the MBC is the lowest tested concentration that kills the bacteria rather than only halting them. The MIC is the lowest concentration that inhibits growth of the organism.

The record followed here is ChEMBL document CHEMBL1649233, “In vitro bactericidal activity of iclaprim in human plasma” (Antimicrob Agents Chemother, 2009).

≈ marks a conversion by molar mass, not a printed value.

Series [1] has as its system Staphylococcus aureus. The experiment in a line: Bactericidal activity against methicillin-resistant Staphylococcus aureus 20 on CAMHB media at 4 times MIC by time kill analysis in presence of 50% human plasma. Format: functional.
Series [2] concerns Staphylococcus aureus. The experiment in a line: Bactericidal activity against methicillin-susceptible Staphylococcus aureus ATCC 25923 on CAMHB media at 4 times MIC by time kill analysis in presence of 50% human plasma. Format: functional.
The subject of series [3] is Staphylococcus aureus. As to the kind of experiment: Bactericidal activity against methicillin-susceptible Staphylococcus aureus after 24 hrs by M26-A method in presence of 50% human plasma. Type of series: functional.
Series [4] concerns Staphylococcus aureus. The experiment in a line: Antimicrobial activity against methicillin-susceptible Staphylococcus aureus by broth microdilution method in presence of 50% human plasma. Type of series: functional. In general terms: Dilution methods test growth across graded concentrations, often in twofold steps.
For series [5], the system named is Staphylococcus aureus. The experiment in a line: Bactericidal activity against methicillin-resistant Staphylococcus aureus after 24 hrs by M26-A method. Format: functional.
The subject of series [6] is Staphylococcus aureus. As to the kind of experiment: Antimicrobial activity against methicillin-resistant Staphylococcus aureus by broth microdilution method in presence of 50% human plasma. Format: functional.
The subject of series [7] is Staphylococcus aureus. The experiment in a line: Bactericidal activity against methicillin-resistant Staphylococcus aureus 50478 on CAMHB media at 4 times MIC by time kill analysis. Format: functional.
Series [8] has as its system Staphylococcus aureus. As to the kind of experiment: Bactericidal activity against methicillin-resistant Staphylococcus aureus 20 on CAMHB media at 4 times MIC by time kill analysis. Format: functional.
Series [9] concerns Staphylococcus aureus. The experiment in a line: Antimicrobial activity against methicillin-resistant Staphylococcus aureus by broth microdilution method. Type of series: functional.
The subject of series [10] is Staphylococcus aureus. As to the kind of experiment: Ratio of MIC for glycopeptide-nonsusceptible Staphylococcus aureus NJ992 in presence of 50% heat inactivated serum to MIC for glycopeptide-nonsusceptible Staphylococcus aureus NJ992. Format: functional.
For series [11], the system named is Staphylococcus aureus. As to the kind of experiment: Bactericidal activity against methicillin-resistant Staphylococcus aureus after 24 hrs by M26-A method in presence of 50% human plasma. Type of series: functional.
The test system of series [12] is Staphylococcus aureus. The experiment in a line: Ratio of MBC to MIC for methicillin-susceptible Staphylococcus aureus. Format: functional.
Series [13] in a line: Plasma protein binding in human. The conditions noted are these: read-out: PPB (converted). Format: ADME, cell-free.
Series [14] deals with Staphylococcus aureus. The experiment in a line: Antimicrobial activity against methicillin-susceptible Staphylococcus aureus by broth microdilution method. Type of series: functional.
Series [15] has as its system Staphylococcus aureus. As to the kind of experiment: Bactericidal activity against methicillin-resistant Staphylococcus aureus 6 on CAMHB media at 4 times MIC by time kill analysis in presence of 50% human plasma. Format: functional.
Series [16] deals with Staphylococcus aureus. As to the kind of experiment: Bactericidal activity against methicillin-susceptible Staphylococcus aureus after 24 hrs by M26-A method. Type of series: functional.
Series [17] concerns Staphylococcus aureus. The experiment in a line: Bactericidal activity against methicillin-resistant Staphylococcus aureus 3817 on CAMHB media at 4 times MIC by time kill analysis. Format: functional.
The subject of series [18] is Staphylococcus aureus. The experiment in a line: Bactericidal activity against methicillin-susceptible Staphylococcus aureus ATCC 25923 on CAMHB media at 4 times MIC by time kill analysis. Format: functional.
Series [19] concerns Staphylococcus aureus. As to the kind of experiment: Bactericidal activity against methicillin-resistant Staphylococcus aureus 50478 on CAMHB media at 4 times MIC by time kill analysis in presence of 50% human plasma. Type of series: functional.
Series [20] concerns Staphylococcus aureus. The experiment in a line: Ratio of MBC to MIC for methicillin-susceptible Staphylococcus aureus in presence of 50% human plasma. Type of series: functional.
Series [21] concerns Staphylococcus aureus. As to the kind of experiment: Bactericidal activity against methicillin-resistant Staphylococcus aureus 3817 on CAMHB media at 4 times MIC by time kill analysis in presence of 50% human plasma. Type of series: functional.
The test system of series [22] is Staphylococcus aureus. The experiment in a line: Bactericidal activity against methicillin-resistant Staphylococcus aureus 6 on CAMHB media at 4 times MIC by time kill analysis. Type of series: functional.

With `COc1cc(Cc2cnc(N)nc2N)c2c(c1OC)OC(C1CC1)C=C2` (configuration not stated), the Time worked out at 5 h in the series on Staphylococcus aureus [1]; 7.2 h in the series on Staphylococcus aureus [2]; 6.8 h in the series on Staphylococcus aureus [7]; 5.5 h in the series on Staphylococcus aureus [8]; 7.6 h with Staphylococcus aureus [15]; 6.1 h with Staphylococcus aureus [17]. Moreover, the Time with Staphylococcus aureus [18] was determined as 6.2 h; in the series on Staphylococcus aureus [19], 6 h. Further, the MBC with Staphylococcus aureus [3] came to 0.11 µg/mL; against Staphylococcus aureus [5] it was 0.1 µg/mL (≈ 0.282 µM); in the series with Staphylococcus aureus [11], 0.11 µg/mL; in the series with Staphylococcus aureus [16], 0.1 µg/mL (≈ 0.282 µM). Besides, the MIC in the series on Staphylococcus aureus [4] was 0.11 µg/mL; with Staphylococcus aureus [6] it was 0.11 µg/mL; with Staphylococcus aureus [9], 0.09 µg/mL (≈ 0.254 µM); in the series on Staphylococcus aureus [14], 0.09 µg/mL (≈ 0.254 µM). The Ratio in the series on Staphylococcus aureus [10], with Staphylococcus aureus [12] and in the series on Staphylococcus aureus [20] was 1 each time. For the same compound, in series [13], the fraction unbound is 0.07.

In the case of `CC(=O)N[C@@H]1[C@H](Oc2c3cc4cc2Oc2ccc(cc2Cl)[C@@H](O[C@@H]2O[C@@H](CO)[C@@H](O)[C@H](O)[C@@H]2NC(C)=O)[C@@H]2NC(=O)[C@H](NC(=O)[C@@H]4NC(=O)[C@H]4NC(=O)[C@@H](Cc5ccc(c(Cl)c5)O3)NC(=O)[C@H](N)c3ccc(O)c(c3)Oc3cc(O)cc4c3)c3ccc(O)c(c3)-c3c(O[C@H]4O[C@H](CO)[C@@H](O)[C@@H](O)[C@@H]4O)cc(O)cc3[C@@H](C(=O)O)NC2=O)O[C@@H](CO)[C@@H](O)[C@@H]1O`, the MBC in the series with Staphylococcus aureus [3] is 1.68 µg/mL; in the series with Staphylococcus aureus [5] it was 1.41 µg/mL (≈ 0.798 µM); with Staphylococcus aureus [11], 1.68 µg/mL; in the series with Staphylococcus aureus [16], 1.41 µg/mL (≈ 0.798 µM). Moreover, the MIC in the series with Staphylococcus aureus [4] stood at 1.23 µg/mL; in the series with Staphylococcus aureus [6], 1.23 µg/mL; against Staphylococcus aureus [9] it was 1.07 µg/mL (≈ 0.605 µM); in the series with Staphylococcus aureus [14] it was 1.07 µg/mL (≈ 0.605 µM). In addition, the Ratio in the series on Staphylococcus aureus [12] and in the series with Staphylococcus aureus [20] was 1 throughout.

As to `CC(=O)O[C@H]1C[C@@]2(C)[C@@H](C[C@@H](O)[C@H]3[C@@]4(C)CC[C@@H](O)[C@@H](C)[C@@H]4CC[C@@]32C)/C1=C(\CCC=C(C)C)C(=O)O` [FUSIDIC ACID], the MIC stood at 6.73 µg/mL in the series with Staphylococcus aureus [4], 6.73 µg/mL in the series on Staphylococcus aureus [6], 0.14 µg/mL (≈ 0.271 µM) in the series on Staphylococcus aureus [9] and 0.14 µg/mL (≈ 0.271 µM) against Staphylococcus aureus [14]. Also, the figures for the Ratio in the series with Staphylococcus aureus [12] and in the series on Staphylococcus aureus [20] were 2 and 4, respectively. Further, the fraction unbound in [13] is 0.03.

Regarding `CC(=O)NC[C@H]1CN(c2ccc(N3CCOCC3)c(F)c2)C(=O)O1` [LINEZOLID], the MBC in the series with Staphylococcus aureus [3], against Staphylococcus aureus [5], in the series with Staphylococcus aureus [11] and with Staphylococcus aureus [16] was more than 32 µg/mL each time. Also, the MIC in the series with Staphylococcus aureus [4] was found to be 2.55 µg/mL; with Staphylococcus aureus [6], 2.55 µg/mL; against Staphylococcus aureus [9], 3.73 µg/mL (≈ 11.1 µM); with Staphylococcus aureus [14] it was 3.73 µg/mL (≈ 11.1 µM).

Regarding `CN[C@H](CC(C)C)C(=O)N[C@H]1C(=O)N[C@@H](CC(N)=O)C(=O)N[C@H]2C(=O)N[C@H]3C(=O)N[C@H](C(=O)N[C@H](C(=O)O)c4cc(O)cc(O)c4-c4cc3ccc4O)[C@H](O)c3ccc(c(Cl)c3)Oc3cc2cc(c3O[C@@H]2O[C@H](CO)[C@@H](O)[C@H](O)[C@H]2O[C@H]2C[C@](C)(N)[C@H](O)[C@H](C)O2)Oc2ccc(cc2Cl)[C@H]1O` [VANCOMYCIN], the Time in the series on Staphylococcus aureus [1] turned out to be 17 h; in the series on Staphylococcus aureus [2] it was 12.8 h; in the series with Staphylococcus aureus [21], 15.6 h; in the series with Staphylococcus aureus [8], 10.6 h; with Staphylococcus aureus [17] it was 17 h; in the series with Staphylococcus aureus [18], 15 h. Further, the Time amounted to 12 h with Staphylococcus aureus [19] and 13.5 h with Staphylococcus aureus [22]. The MBC stood at 1.52 µg/mL in the series on Staphylococcus aureus [3], 1.74 µg/mL (≈ 1.2 µM) in the series with Staphylococcus aureus [5], 1.52 µg/mL with Staphylococcus aureus [11] and 1.74 µg/mL (≈ 1.2 µM) against Staphylococcus aureus [16]. Moreover, the MIC in the series with Staphylococcus aureus [4] amounted to 1.46 µg/mL; with Staphylococcus aureus [6], 1.46 µg/mL; against Staphylococcus aureus [9], 1.62 µg/mL (≈ 1.12 µM); against Staphylococcus aureus [14], 1.62 µg/mL (≈ 1.12 µM). In addition, the fraction unbound in series [13] was 0.45.
